This passage reports inhibition results from PMC6934184, “Selective DNA-PKcs inhibition extends the therapeutic index of localized radiotherapy and chemotherapy” (The Journal of Clinical Investigation, 2019).

In general, inhibition refers to the relative decrease from the control value, in per cent.

The structures appear in SMILES notation.

The target of this assay is T1, AXL (Homo sapiens, UniProt P30530).
T1 construct: purchased Thermo Fisher Scientific (Life Technologies) SelectScreen
As to the kind of experiment: SelectScreen Z'LYTE. In kind it is biochemical. Put shortly:
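SelectScreen broad panel; activity (Z'LYTE, Adapta) plus binding formats. ATP: Km app for CSF1R Z'LYTE; 10 for CAMK1 Adapta. Readout = % per kinase.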

T1 sequence (P30530 26-894): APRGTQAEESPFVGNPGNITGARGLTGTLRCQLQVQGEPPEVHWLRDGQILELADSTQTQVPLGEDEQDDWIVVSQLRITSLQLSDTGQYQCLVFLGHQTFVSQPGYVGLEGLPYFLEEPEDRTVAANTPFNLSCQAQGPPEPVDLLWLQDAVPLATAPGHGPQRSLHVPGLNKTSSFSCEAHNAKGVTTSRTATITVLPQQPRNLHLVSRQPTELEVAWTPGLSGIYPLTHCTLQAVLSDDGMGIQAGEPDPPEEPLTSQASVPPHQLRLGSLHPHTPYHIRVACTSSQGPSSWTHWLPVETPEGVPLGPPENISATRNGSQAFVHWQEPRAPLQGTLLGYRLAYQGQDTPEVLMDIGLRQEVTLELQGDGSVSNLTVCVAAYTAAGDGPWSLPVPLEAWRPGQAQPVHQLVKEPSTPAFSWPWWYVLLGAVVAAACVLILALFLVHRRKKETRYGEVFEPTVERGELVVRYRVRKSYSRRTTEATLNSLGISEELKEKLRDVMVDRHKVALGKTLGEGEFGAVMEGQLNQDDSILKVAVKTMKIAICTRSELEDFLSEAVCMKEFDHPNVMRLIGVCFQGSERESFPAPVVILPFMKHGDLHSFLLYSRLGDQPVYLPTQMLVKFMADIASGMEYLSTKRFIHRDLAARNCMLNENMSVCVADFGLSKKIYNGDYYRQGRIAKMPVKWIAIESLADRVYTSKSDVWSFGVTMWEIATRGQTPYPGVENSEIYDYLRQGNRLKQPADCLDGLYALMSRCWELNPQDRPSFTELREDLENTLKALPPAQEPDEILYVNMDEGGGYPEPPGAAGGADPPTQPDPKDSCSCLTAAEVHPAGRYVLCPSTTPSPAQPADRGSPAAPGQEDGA

`CN(C(=O)CN1CCOCC1)c1ccc2sc3c(-c4cccc5c(=O)cc(N6CC7CCC(C6)O7)oc45)cccc3c2c1` [NU5455]: the inhibition at 1 µM is -4.2%.
